Data published in patent US20210121518A1, “HER2-TARGETED PEPTIDOMIMETICS GRAFTED ONTO MULTICYCLIC PEPTIDE SCAFFOLDS AND METHODS AND USES” (Board of Supervisors for the University of Louisiana System, priority 2018, published 2021).
“And” between values parts separate entries of the source, which are not always exact repeats. Equal values may be shown once. “Also recorded” adds a separate entry of the source. Numbered stars: 1 amine (or outer) side, 2 acyl side, 3 side chain; on linkers, the order of the positions; unused ones are H or OH. Bridge positions count the residues as written; N and C are the ends. Square brackets hold non-standard residues; d marks the D form. Peptide text beside a SMILES is read from it. βAla(3R-(1-naphthyl)) = O=C(C[C@@H](N[*:1])c1cccc2ccccc12)[*:2]; βAla(3S-(1-naphthyl)) = O=C(C[C@H](N[*:1])c1cccc2ccccc12)[*:2]

Legend:
trypsin = assay: Stability in trypsin (HPLC); format: in vitro ADME; settings: pH 7.4, 37° C, 24 hours
Description: The trypsin inhibition assay was performed with a modified Erlanger's method. […] Samples at different incubation times were analyzed by HPLC.

[1] = tested on: BT-474 cell lines that overexpress HER2; assay: Synergy with TKI (isobologram) in BT-474; format: cell-based
[2] = for appearance in water (turbidity): 0.5 mg in 1 mL water, compared to blank
Description: 0.5 mg of each compound was added to water in 1 mL. […] If a compound is highly soluble in water, it may not pass through intestinal barrier. Compound should be slightly lipophilic to pass through intestinal barrier.

[3] = tested on: Calu-3 lung cancer cell lines that overexpresses HER2; assay: Synergy with TKI (isobologram) in Calu-3; format: cell-based
[4] = tested on: NCI-H1975 (EGFR L858R/T790M double mutation); settings: read-out: antiproliferative activity IC50
Description: (§1) X=Anapa, amino naphthyl propionic acid, specifically, 3-amino 3(1-napthyl) propionic acid. Single letter amino acid code was used for peptide sequence. Small letters refer to D amino acids and capital letters refer to L amino acids. Chirality of Anapa was indicated with R and S configuration in italics. Antiproliferative activity of peptides in cancer cell lines are given as IC50 μM. Disulfide bond between the cysteines is shown in underline.
The inventor therefor designed compounds to bind to the extracellular domain and inhibit the downstream signaling. NCI-H1975 is a cell line that harbors the EGFR L858R/T790M double mutation.

[5] = tested on: A549 Red-FLuc NSCLC cells; assay: A549 Red-FLuc lung cancer model in athymic nude mice; format: in vivo, mice (Foxn1-nude); settings: 6 mg/kg IV twice a week
Description: A549 cells with luciferase were injected to induce lung cancer in mice (Foxn1-nude). One week after injection of cells, mice were monitored for lung cancer development using luciferin imaging. Peptide was administered via IV twice a week after 2 weeks of cell injections. Representative images: In the control group (row 1) lung cancer tumor growth increased in 5 weeks.
FIG. 17 is a chart showing relative luminescence intensity (total photon flux/sec) plotted for 3 animals and a control.
FIG. 18A is a plot of relative luminescence intensity (total photon flux/sec) plotted for 4 animals and controls from the lung cancer study, *p<0.05, and FIG. 18B is a plot displaying bodyweight change of mice during the study.
Athymic nude mice (Foxn1-nude, 6-7 weeks old) were purchased from Harlan laboratories. Mice were acclimatized for one week in the vivarium. 4.5×10^6 A549 Red-FLuc NSCLC cells in 150 μL PBS were injected into each mouse via tail vein (IV). Total of four mice were injected with cells. Mice were monitored for 2 weeks. After 1 week, mice were injected with luciferin (200 μL in PBS, IP injection) and imaged under anesthesia using IVIS (Perkin Elmer) instrument. Bioluminescence was measured from each animal. One animal was used as a control. Peptide treatment started after 2 weeks from injection of cells and peptide was prepared in PBS and administered via i.v. with a dose of 6 mg/kg in 100 μL twice a week. Animals were imaged once a week to monitor the progression of lung cancer. Images were quantified using Living Image Software (Perkin Elmer). Bioluminescence signal for each mouse was expressed as total flux of photons/sec. Region of interest tool was used to measure the total photon flux/sec. A graph of bioluminescence for each mouse was plotted with respect to time (each week). After five weeks mice were terminated, and tumor sections and lungs were removed by surgical procedure. Tumor sections were fixed, embedded in […], and cut into 5 μm slices. […] Images were viewed under a fluorescence microscope (Olympus BX63 microscope) at 40× magnification. […]

[6] = Stability in human serum (in vitro, HPLC); format: in vitro ADME
From the text: At different time points, aliquots of sample were taken and subjected to extraction of compound using cold acetonitrile. Samples were freeze dried and quantified by HPLC method. […] Nearly 60% of sample is intact peptide.

[7] = tested on: EGFR mutated NSCLC cell line NCI-H1975; assay: Synergy with TKI (isobologram) in NCI-H1975; format: cell-based
[8] = tested on: HER2 overexpressing BT-474 breast cancer cell lines; settings: read-out: antiproliferative activity IC50
Description: as §1

[9] = tested on: MCF-7 cell lines that do not overexpress the HER2 protein
Description: as §1

[10] = tested on: HER2-overexpressing lung cancer Calu-3 cell lines; settings: read-out: antiproliferative activity IC50
Description: as §1

[11] = Thermal stability by MALDI-TOF mass spectrometry; format: physicochemical; settings: 25° C., 50° C., 80° C., MALDI-TOF-MS
Description: FIGS. 12A-12C are three charts showing thermal stability of the disclosed H2TPFGGoCSs using mass spectrometry.
(§2) However, CD spectra of peptides provide the information about the overall average conformation of the peptide in solution. To verify that the peptide was stable even at high temperature, the samples of peptide that were heated to 80 C was analyzed by mass spectrometry. […] The CD spectra of compound 18 was also verified using mass spectrometry analysis (FIG. 22).

[12] = tested on: phosphorylation of HER2 kinase; assay: Western blot of HER2 phosphorylation in A549 cells; format: cell-based; settings: 1 μM, incubation 40 h
Description: Lapatinib (2 μM) was used as positive control. Incubation 40 h. *p<0.05 **P<0.01.
Lapatinib, a known inhibitor of HER2, was used as a positive control.

[13] = tested on: normal breast epithelial cell line MCF-10A; settings: for IC50: read-out: antiproliferative activity IC50, MCF-10A
Description: as §1
Design of grafted peptides: Peptidomimetics were designed to bind to HER2 protein domain IV and inhibit PPI of HER2:HER3 and EGFR:HER2.

[14] = Thermal stability by CD spectroscopy; format: physicochemical; settings: temperature changed from 25 to 80° C. (85 C)
Description: Overall conformation of the peptide remained the same at all temperatures studied.
as §2

[15] = biological target: HER2 protein extracellular domain (ECD) (Homo sapiens, UniProt P04626); assay: SPR binding to HER2 extracellular domain; settings: SPR sensorgram
From the text: Surface plasmon resonance (SPR) analysis of binding of grafted peptide with HER2 ECD protein at different concentrations. […] SPR analysis of binding of grafted peptide with HER2 ECD domain IV protein at different concentrations.
To evaluate the binding of the grafted peptide to HER2 protein ECD, surface plasmon resonance (SPR) analysis was used.

[16] = biological target: T1, human serum albumin (HSA) (human, UniProt P02768 25-609); assay: SPR
T1 construct: also called HSA protein
T1 sequence (P02768 25-609 limits assumed): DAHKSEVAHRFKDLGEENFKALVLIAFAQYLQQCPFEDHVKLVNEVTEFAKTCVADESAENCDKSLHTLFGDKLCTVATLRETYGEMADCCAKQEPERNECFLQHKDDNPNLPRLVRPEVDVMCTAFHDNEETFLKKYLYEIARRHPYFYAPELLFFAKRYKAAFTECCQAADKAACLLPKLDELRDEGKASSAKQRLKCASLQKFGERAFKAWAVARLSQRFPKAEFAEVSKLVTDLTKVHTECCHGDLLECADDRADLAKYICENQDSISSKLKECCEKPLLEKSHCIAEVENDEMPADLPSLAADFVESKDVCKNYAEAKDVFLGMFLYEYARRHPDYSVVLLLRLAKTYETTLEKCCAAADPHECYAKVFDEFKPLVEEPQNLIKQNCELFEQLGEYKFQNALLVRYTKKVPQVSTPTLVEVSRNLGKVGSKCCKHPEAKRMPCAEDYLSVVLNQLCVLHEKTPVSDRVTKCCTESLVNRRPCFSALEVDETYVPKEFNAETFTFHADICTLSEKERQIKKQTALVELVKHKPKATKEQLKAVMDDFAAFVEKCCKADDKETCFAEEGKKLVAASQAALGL

For `CC[C@H](C)[C@@H]1NC(=O)[C@H](CCCNC(=N)N)NC(=O)C[C@@H](c2cccc3ccccc23)NC(=O)[C@@H]2CSSC[C@H](NC(=O)C[C@@H](c3cccc4ccccc34)NC(=O)[C@H](CCCNC(=N)N)NC(=O)[C@@H]3CCCN3C(=O)[C@@H]3CCCN3C1=O)C(=O)N[C@@H](Cc1ccccc1)C(=O)N1CCC[C@H]1C(=O)N[C@@H](CC(=O)O)C(=O)N[C@@H](CC(=O)O)C(=O)N[C@@H](Cc1ccccc1)C(=O)N2` [SFTI-G5, Cyclo(C(S-X)RIPPR(S-X)CFPDDF)], which stability in trypsin (trypsin) is on record?
The stability in trypsin was “stable in trypsin assay”.

And the “synergistic effect with erlotinib (isobologram)” value ([1]; BT-474, combination with erlotinib)?
The value was “synergistic”.

What about the “synergistic effect with lapatinib (isobologram)” value ([1]; BT-474, combination with lapatinib) of the same molecule?
Its value is “synergistic”.

What about the “appearance in water (turbidity)” value [2] of the same molecule?
The value was “slightly turbid”.

And the “synergistic effect with erlotinib (isobologram)” value ([3]; Calu-3, combination with erlotinib)?
Its value is “synergistic”.

What about the “synergistic effect with lapatinib (isobologram)” value ([3]; Calu-3, combination with lapatinib) of the same molecule?
Its value is “synergistic”.

And the IC50 [4]?
Its IC50 is 4.22 µM.

What about the “histological analysis of lung tissue” value [5] of the same molecule?
Its value is “reduced pathological features associated with tumor development”.

What about the “tumor growth (bioluminescence, total photon flux/sec)” value ([5]; weeks 4 and 5, vs control) of the same molecule?
The value was “reduced growth of tumors; also recorded: tumor growth was reduced compared to the control group; also recorded: reduction in the luminescence intensity of tumors”.

And the “body weight change of mice” value ([5]; during the study)?
The value was “No changes in body weight were observed”.

And the “time of stability in human serum” value ([6]; 2 mg/mL in human serum, HPLC)?
The value was “up to 50 h”.

What about the remaining at 50 h, 2 mg/mL ([6]; human, human serum, up to 50 h, read-out: intact peptide in human serum) of the same molecule?
Its remaining at 50 h, 2 mg/mL is roughly 60%.

And the “synergistic effect with erlotinib (isobologram)” value ([7]; NCI-H1975, combination with erlotinib)?
Its value is “synergistic”.

And the “synergistic effect with lapatinib (isobologram)” value ([7]; NCI-H1975, combination with lapatinib)?
The value was “synergistic”.

What about the IC50 [8] of the same molecule?
Its IC50 is 0.28 µM.

What about the “antiproliferative activity, times less against HER2-ve cell lines” value ([9]; as printed: less than its activity against HER2-ve cell lines) of the same molecule?
The value was roughly 300 times.

And the IC50 ([9]; read-out: antiproliferative activity IC50, MCF-7)?
Its IC50 is 25 µM.

What about the IC50 [10] of the same molecule?
The IC50 was 0.073 µM.

What about the “thermal stability, mass spectrometry” value [11] of the same molecule?
Its value is “stable up to 80 C; also recorded: thermally stable”.

And the “inhibition of HER2 phosphorylation” value [12]?
The value was “inhibits phosphorylation of HER2 kinase; also recorded: reduces HER2 phosphorylation”.

And the “antiproliferative activity, times less in noncancerous breast cell lines compared to Calu-3” value ([13]; MCF-10A vs Calu-3)?
The value was “more than 500 times”.

What about the IC50 [13] of the same molecule?
Its IC50 is 40 µM.

And the “thermal stability, CD spectra” value [14]?
Its value is “stable from 25 C to 85 C; also recorded: more stable than compound 18; also recorded: no significance difference in the CD spectra”.

Which solubility [2] does the source give for `N=C(N)NCCC[C@@H]1NC(=O)[C@H]2CCCN2C(=O)[C@@H]2CCCN2C(=O)[C@H](CCCNC(=N)N)NC(=O)C[C@H](c2cccc3ccccc23)NC(=O)[C@H](Cc2ccccc2)NC(=O)[C@H](CC(=O)O)NC(=O)[C@H](CC(=O)O)NC(=O)[C@H](Cc2ccccc2)NC(=O)C[C@H](c2cccc3ccccc23)NC1=O` [compound 18, reference compound] (cyclo(P[dP]R[βAla(3R-(1-naphthyl))]FDDF[βAla(3R-(1-naphthyl))]R)) here?
The solubility was less than 500 µg/mL.

What about the IC50 [13] of the same molecule?
Its IC50 is 40 µM.

For “Cyclo(C(S-X)RIHyPHyPR(S-X)CFPDDF) [SFTI-G7]”, which “appearance in water (turbidity)” value [2] is on record?
The value was “slightly turbid”.

Which “binding to HER2 protein (in words)” value [15] does the source give for “H2N—K(3-aminobiphenyl propionic acid)F—OH [control peptide]” here?
Its value is “does not bind to HER2 protein; also recorded: no binding was observed”.

B1: SFTI-G5 (peptide)
peptide: cyclo(C[βAla(3S-(1-naphthyl))]RIPPR[βAla(3S-(1-naphthyl))]CFPDDF)
modifications: disulfide 1-9
notes: also called grafted peptide; grafted SFTI peptide
For B1, which Kd [16] is on record?
Its Kd is 56.9 µM and 56 µM.
